System: subcutaneous HT1080 (FAP−) and HT1080-hFAP (FAP+) tumors
Assay: Dynamic and late static small animal PET/MRI in tumor-bearing mice
Type: in vivo, mouse
Method: Tumor cells (10^6 cells in 50 μL saline) were implanted subcutaneously in the shoulders of NMRI mice with HT1080 wildtype (FAP^−) in one shoulder and with stably transfected human FAP-expressing HT1080 cells (FAP^+) in the contralateral shoulder. Cells were kindly provided by U. Haberkorn, University of Heidelberg. At day 11 after implantation, mice received whole-body PET/MRI (1 T Mediso nanoScan) imaging with list mode PET for 60 min and additional non-contrast-enhanced anatomic, coronal T1-weighted MRI, followed by late static PET/MRI imaging 180 min p.i. Either ^68Ga-OncoFAP or ^68Ga-FAPI-46 (n = 6 each) was injected into the tail vein with a syringe pump at 1000 μL/min in a volume of 100 μL 30 s after the start of PET. At the next day (day 12 after implantation), the same mice were injected with the respective other FAP-tracer and received identical dynamic PET/MRI for 60 min. Sixty minutes p.i., mice were sacrificed under deep narcosis and organs and body fluids were harvested, weighed, and γ-counted. All involved measuring hardware (dose calibrator ISOMED 2010, automatic γ-counter PERKIN ELMER WALAC 2480, Twilite coincidence detector Swisstrace, PET/MRI) were cross-calibrated for ^68Ga. Overall, 3 scans were rejected, because of extravasation (day 11 OncoFAP), inability of i.v. access (day 12 FAPI-46), and insufficient radioactivity (day 12 FAPI-46), respectively. The resulting injected amounts of radioactivity for the remaining 11 ^68Ga-OncoFAP scans and 10 ^68Ga-FAPI-46 scans were 19.2 ± 4.4 MBq and 18.2 ± 4.8 MBq, respectively.
Dynamic PET scans were reconstructed in time frames of 1 × 30 s, 5 × 12 s, 5 × 60 s, 4 × 300 s, 2 × 600 s, and 1 × 810 s. Frames 12 and 18 and the late scan are referred to as (rounded) 10 min, 1 h, and 3 h throughout the manuscript. Volume of interests (VOI) of tumors and representative organs were defined on anatomic MRI. Resulting tumor volumes for ^68Ga-OncoFAP scans for FAP^+ and FAP^− tumors were 0.4 ± 0.36 and 0.22 ± 0.15, and for FAPI-46 scans were 0.34 ± 0.20 and 0.2 ± 0.17 (n.s. different between the two tracers).

SMILES: CN(CCCN1CCN(C(=O)CN2CCN(CC(=O)[O-])CCN(CC(=O)[O-])CCN(CC(=O)[O-])CC2)CC1)c1ccc2nccc(C(=O)NCC(=O)N3CC(F)(F)C[C@H]3C#N)c2c1.[68Ga+3] [^68Ga-FAPI-46, [^68Ga]Ga-FAPI-46]
- SUVmean blood (small animal PET 10 min p.i.): 0.52 ± 0.09
- SUVmean kidney (small animal PET 10 min p.i.): 1.43 ± 0.88
- SUVmean liver (small animal PET 10 min p.i.): 0.57 ± 0.17
- SUVmean muscle (small animal PET 10 min p.i.): 0.35 ± 0.07
- SUVmean spleen (small animal PET 10 min p.i.): 0.40 ± 0.19
- SUVmean tumor FAP+ (small animal PET 10 min p.i.): 0.40 ± 0.07
- SUVmean tumor FAP- (small animal PET 10 min p.i.): 0.39 ± 0.07
- SUVmean blood (small animal PET 1 h p.i.): 0.19 ± 0.07
- SUVmean kidney (small animal PET 1 h p.i.): 0.54 ± 0.54
- SUVmean liver (small animal PET 1 h p.i.): 0.28 ± 0.16
- SUVmean muscle (small animal PET 1 h p.i.): 0.08 ± 0.04
- SUVmean spleen (small animal PET 1 h p.i.): 0.15 ± 0.07
- SUVmean tumor FAP+ (small animal PET 1 h p.i.): 0.25 ± 0.06
- SUVmean tumor FAP- (small animal PET 1 h p.i.): 0.10 ± 0.05
- SUVmean kidney (small animal PET 3 h p.i.): 0.07 ± 0.02
- SUVmean liver (small animal PET 3 h p.i.): 0.28 ± 0.19
- SUVmean muscle (small animal PET 3 h p.i.): 0.02 ± 0.00
- SUVmean spleen (small animal PET 3 h p.i.): 0.09 ± 0.06
- SUVmean tumor FAP+ (small animal PET 3 h p.i.): 0.16 ± 0.06
- SUVmean tumor FAP- (small animal PET 3 h p.i.): 0.02 ± 0.01

— article PMC9016025, “Translational imaging of the fibroblast activation protein (FAP) using the new ligand [^68Ga]Ga-OncoFAP-DOTAGA” (European Journal of Nuclear Medicine and Molecular Imaging, 2021)
